Measurements as given in patent US10508120B2, “TYK2 inhibitors and uses thereof” (Nimbus Lakshmi, Inc., priority 2017, dated 2019).
pKd: −log10 of the molar value.

Legend:
JAK2 kinase domain (JH1) = JAK2 kinase domain (JH1) (Homo sapiens (Human), UniProt O60674); assay: JAK2 Radioactive Kinase Assay; format: biochemical; settings: compound at 10 μM, ATP 10 μM; for inhibition at 10 µM: read-out: JAK2 JH1% Inhibition @ 10 μM
How it was run: (§1)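 Compounds were tested at a single concentration of 10 μM in a radiometric kinase format against each isolated kinase domain. Activity is reported as percent inhibition at that concentration.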

[1] = molecular target: human TYK2 (JH2domain-pseudokinase) (Homo sapiens (Human), UniProt P29597); assay: TYK2 JH2 Domain Binding Assay (KINOMEscan)
How it was run: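 Competition binding of a DNA-tagged fusion of human TYK2 JH2 pseudokinase (G556–D888) with NFkB DNA-binding domain, from HEK293 extracts (<0.1 nM final), against immobilised ligand beads; 1 h shaking at room temperature, 0.9% DMSO. Bound kinase quantified by qPCR.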

Tyk2 kinase domain (DH1) = Tyk2 kinase domain (DH1) (Homo sapiens (Human), UniProt P29597); assay: Tyk2 Radioactive Kinase Assay; format: biochemical; settings: compound at 10 μM, ATP 10 μM; for inhibition at 10 µM: read-out: Tyk2 JH1% Inhibition @ 10 μM
How it was run: as §1

JAK2 kinase domain (JH1), sequence (O60674 849-1124): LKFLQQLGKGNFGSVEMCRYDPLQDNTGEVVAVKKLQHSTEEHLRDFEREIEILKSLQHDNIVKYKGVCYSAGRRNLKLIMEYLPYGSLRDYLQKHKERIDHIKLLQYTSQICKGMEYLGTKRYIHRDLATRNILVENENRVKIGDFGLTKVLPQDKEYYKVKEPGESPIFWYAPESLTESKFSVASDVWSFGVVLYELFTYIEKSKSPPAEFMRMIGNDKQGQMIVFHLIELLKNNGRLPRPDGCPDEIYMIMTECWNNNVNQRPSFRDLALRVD
human TYK2 (JH2domain-pseudokinase), sequence (P29597 556-888): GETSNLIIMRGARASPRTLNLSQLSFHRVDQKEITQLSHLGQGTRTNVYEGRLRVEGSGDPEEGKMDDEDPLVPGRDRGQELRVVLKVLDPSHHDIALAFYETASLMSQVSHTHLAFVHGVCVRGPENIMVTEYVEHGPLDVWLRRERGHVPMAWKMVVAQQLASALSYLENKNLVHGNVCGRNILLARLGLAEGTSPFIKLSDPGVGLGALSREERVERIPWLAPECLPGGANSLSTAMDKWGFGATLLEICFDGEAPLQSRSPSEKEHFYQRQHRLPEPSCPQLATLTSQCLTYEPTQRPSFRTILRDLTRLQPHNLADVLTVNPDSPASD
Tyk2 kinase domain (DH1), sequence (P29597 897-1176): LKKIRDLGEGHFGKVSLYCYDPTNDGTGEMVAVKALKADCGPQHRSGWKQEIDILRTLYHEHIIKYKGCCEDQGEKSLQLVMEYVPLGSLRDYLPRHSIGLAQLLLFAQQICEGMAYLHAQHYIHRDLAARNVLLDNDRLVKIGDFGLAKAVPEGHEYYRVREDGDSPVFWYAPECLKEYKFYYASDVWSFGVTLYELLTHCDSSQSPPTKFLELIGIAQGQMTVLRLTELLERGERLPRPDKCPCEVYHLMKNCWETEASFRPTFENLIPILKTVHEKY

Row | Compound | inhibition at 10 µM (JAK2 kinase domain (JH1)) | pKd [1] | inhibition at 10 µM (Tyk2 kinase domain (DH1)) | JAK2 JH1% Inhibition @ 10 μM (JAK2 kinase domain (JH1)) | Tyk2 JH1% Inhibition @ 10 μM (Tyk2 kinase domain (DH1))
1 | CNc1cc(Nc2cccn(-c3ncccc3F)c2=O)nc2c(C(=O)NCC(C)CO)cnn12 (stereo not drawn) [I-593, 5-((3′-fluoro-2-oxo-2H-[1,2′-b]pyridinyl-3-yl)amino)-N-(3-hydroxy-2-methylpropyl)-7-(methylamino)pyrazolo[1,5-a]pyrimidine-3-carboxamide] | < 50% | > 9.70 | < 50% |  | 
2 | CNc1cc(Nc2cccn([C@@H]3CCOC[C@@H]3OC)c2=O)nc2c(C(=O)NC3CC3)cnn12 [I-594] |  | 9.00 to 9.70 |  | A (percent inhibition at 10 μM lower than 50) | A (percent inhibition at 10 μM lower than 50)
3 | CNc1cc(Nc2cccn([C@H]3CCOC[C@H]3OC)c2=O)nc2c(C(=O)NC3CC3)cnn12 [I-595] | < 50% | 8.00 to 9.00 | < 50% |  | 
4 | CNc1cc(Nc2cccn(C3CCOCC3)c2=O)nc2c(C(=O)N[C@@H]3CC[C@H]3O)cnn12 [I-597] | < 50% | 9.00 to 9.70 | < 50% |  | 
5 | CNc1cc(Nc2cccn([C@@H]3CCCOC3)c2=O)nc2c(C(=O)NCC(C)(C)CO)cnn12 [I-598] | < 50% | > 9.70 | 50 to 70% |  | 
6 | CNc1cc(Nc2cccn([C@H]3CCCOC3)c2=O)nc2c(C(=O)NCC(C)(C)CO)cnn12 [I-599] | < 50% | > 9.70 | < 50% |  | 
7 | CNc1cc(Nc2cccn(-c3cnn(C[C@@H]4CCOC4)c3)c2=O)nc2c(C(=O)NC3CC3)cnn12 [I-600] | < 50% | > 9.70 | < 50% |  | 
8 | CNc1cc(Nc2cccn(-c3cnn(C[C@H]4CCOC4)c3)c2=O)nc2c(C(=O)NC3CC3)cnn12 [I-601] | < 50% | > 9.70 | < 50% |  | 
9 | CNc1cc(Nc2cccc([C@H]3CCCOC3)n2)nc2c(C(=O)N[C@H]3CC[C@@H]3O)cnn12 [I-602] | < 50% | > 9.70 | < 50% |  | 
10 | CNc1cc(Nc2cccc([C@H]3CCCOC3)n2)nc2c(C(=O)N[C@@H]3CC[C@@H]3O)cnn12 [I-604] | < 50% | > 9.70 | < 50% |  | 
11 | CNc1cc(Nc2cccc([C@@H]3CCCOC3)n2)nc2c(C(=O)N[C@@H]3CC[C@@H]3O)cnn12 [I-605] | < 50% | > 9.70 | < 50% |  | 
12 | CNc1cc(Nc2cccn([C@H]3CCN(C)C[C@@H]3F)c2=O)nc2c(C(=O)NC3CC3)cnn12 [I-608] | < 50% | > 9.70 | < 50% |  | 
13 | CNc1cc(Nc2cccn(C3CCN(C)CC3)c2=O)nc2c(C(=O)N[C@@H]3CC[C@@H]3O)cnn12 [I-609] | < 50% | > 9.70 | < 50% |  | 
14 | CNc1cc(Nc2cccc([C@@H]3CCCCO3)n2)nc2c(C(=O)N[C@@H]3CC[C@@H]3O)cnn12 [I-610] | < 50% | > 9.70 | < 50% |  | 
15 | CNc1cc(Nc2cccc([C@H]3CCCCO3)n2)nc2c(C(=O)N[C@@H]3CC[C@@H]3O)cnn12 [I-611] | < 50% | > 9.70 | < 50% |  | 
16 | CNc1cc(Nc2cccn([C@H]3CC[C@H](OC)CC3)c2=O)nc2c(C(=O)NCC(C)CO)cnn12 (stereo partly drawn) [I-613] | < 50% | > 9.70 | < 50% |  | 
17 | CNc1cc(Nc2cccnc2OC)nc2c(C(=O)N[C@@H]3COC[C@@H]3O)cnn12 [I-614] | < 50% | 8.00 to 9.00 | < 50% |  | 
18 | CNc1cc(Nc2cccnc2OC)nc2c(C(=O)N[C@H]3COC[C@H]3O)cnn12 [I-615] | < 50% | > 9.70 | < 50% |  | 
19 | CNc1cc(-c2cn(CCN3CCN(C)CC3)c3ncccc23)nc2c(C(=O)NC3CC3)cnn12 [I-616] | < 50% | > 9.70 | < 50% |  | 
20 | CNc1cc(-c2cn(CCN3CCN(C)CC3)c3ncccc23)nc2c(C(=O)N[C@H]3C[C@H]3F)cnn12 [I-617] | < 50% | > 9.70 | < 50% |  | 
21 | CNc1cc(Nc2cccc(N3CC4(CCO4)C3)n2)nc2c(C(=O)NC3CC3)cnn12 [I-618] | < 50% | > 9.70 | < 50% |  | 
22 | CNc1cc(Nc2cccc(N3CC4(CCO4)C3)n2)nc2c(C(=O)N[C@H]3C[C@H]3F)cnn12 [I-619] | < 50% | > 9.70 | < 50% |  | 

Row | Compound | inhibition at 10 µM (JAK2 kinase domain (JH1)) | pKd [1] | inhibition at 10 µM (Tyk2 kinase domain (DH1)) | JAK2 JH1% Inhibition @ 10 μM (JAK2 kinase domain (JH1)) | Tyk2 JH1% Inhibition @ 10 μM (Tyk2 kinase domain (DH1))
23 | CNc1cc(Nc2cccc(N3CC(O)C3)n2)nc2c(C(=O)NC3CC3)cnn12 [I-620] | < 50% | > 9.70 | < 50% |  | 
24 | CNc1cc(Nc2cccn([C@H]3CCC[C@@H](OC)C3)c2=O)nc2c(C(=O)NC3CC3)cnn12 [I-622] | < 50% | 9.00 to 9.70 | < 50% |  | 
25 | CNc1cc(Nc2c(F)ccn(C(C)C)c2=O)nc2c(C(=O)NC3CC3)cnn12 [I-623] | < 50% | 8.00 to 9.00 | < 50% |  | 
26 | CNc1cc(Nc2c(F)ccn(-c3nccs3)c2=O)nc2c(C(=O)N[C@H]3C[C@H]3F)cnn12 [I-624] | < 50% | 9.00 to 9.70 | 70 to 90% |  | 
27 | CNc1cc(Nc2cc(F)cn(C3CCN(C)CC3)c2=O)nc2c(C(=O)NC3CC3)cnn12 [I-625] | < 50% | > 9.70 | < 50% |  | 
28 | CNc1cc(Nc2cc(F)cn(C3CCN(C)CC3)c2=O)nc2c(C(=O)N[C@H]3C[C@H]3F)cnn12 [I-626] | < 50% | > 9.70 | < 50% |  | 
29 | CNc1cc(Nc2cccn([C@H]3CCN(C)C[C@H]3F)c2=O)nc2c(C(=O)NC3CC3)cnn12 [I-627] | < 50% | > 9.70 | < 50% |  | 
30 | CNc1cc(Nc2cccn(C3CCN(CCC#N)CC3)c2=O)nc2c(C(=O)N[C@H]3C[C@H]3F)cnn12 [I-628, -((1-(1-(2-cyanoethyl)piperidin-4-yl)-2-oxo-1,2-dihydropyridin-3-yl)amino)-N-((1R,2S)-2-fluorocyclopropyl)-7-(methylamino)pyrazolo[1,5-a]pyrimidine-3-carboxamide] | < 50% | > 9.70 | < 50% |  | 
31 | CNc1cc(-c2cn(C(C)C)c3ncccc23)nc2c(C(=O)NC3CC4(COC4)C3)cnn12 [I-629, 5-(1-isopropyl-1H-pyrrolo[2,3-b]pyridin-3-yl)-7-(methylamino)-N-(2-oxaspiro[3.3]heptan-6-yl)pyrazolo[1,5-a]pyrimidine-3-carboxamide] | < 50% | 9.00 to 9.70 | < 50% |  | 
32 | CNc1cc(Nc2ccc3c(n2)CCO3)nc2c(C(=O)NC3CC3)cnn12 [I-631] | < 50% | 9.00 to 9.70 | < 50% |  | 
33 | CNc1cc(Nc2ccc3c(n2)CCO3)nc2c(C(=O)N[C@H]3C[C@H]3F)cnn12 [I-632] | < 50% | > 9.70 | < 50% |  | 
34 | CNc1cc(Nc2cccn(-c3cnn(C)c3)c2=O)nc2c(C(=O)NCC(C)CO)cnn12 (stereo not drawn) [I-633] | < 50% | > 9.70 | < 50% |  | 
35 | CNc1cc(Nc2cccc([C@H]3CCCOC3)n2)nc2c(C(=O)N[C@@H]3COC[C@@H]3O)cnn12 [I-634] | < 50% | > 9.70 | < 50% |  | 
36 | CNc1cc(-c2cn(C(C)C)c3ncccc23)nc2c(C(=O)N[C@@H]3CC[C@@H]3O)cnn12 [I-638] |  | 9.00 to 9.70 |  | A (percent inhibition at 10 μM lower than 50) | A (percent inhibition at 10 μM lower than 50)
37 | CNc1cc(Nc2cccc([C@H]3CCCOC3)n2)nc2c(C(=O)N[C@@H]3CC[C@@H]3O)cnn12 [I-641] |  | 9.00 to 9.70 |  | A (percent inhibition at 10 μM lower than 50) | A (percent inhibition at 10 μM lower than 50)
38 | CNc1cc(Nc2cccc([C@H]3CCCOC3)n2)nc2c(C(=O)N[C@H]3CC[C@H]3O)cnn12 [I-642] | < 50% | > 9.70 | < 50% |  | 
39 | CNc1cc(Nc2cccc([C@@H]3CCCOC3)n2)nc2c(C(=O)N[C@@H]3CC[C@@H]3O)cnn12 [I-643] |  | 9.00 to 9.70 |  | A (percent inhibition at 10 μM lower than 50) | A (percent inhibition at 10 μM lower than 50)
40 | CNc1cc(Nc2cccc([C@@H]3CCCOC3)n2)nc2c(C(=O)N[C@H]3CC[C@H]3O)cnn12 [I-644] | < 50% | > 9.70 | < 50% |  | 
41 | CNc1cc(Nc2cccc([C@@H]3CCCCO3)n2)nc2c(C(=O)N[C@H]3CC[C@H]3O)cnn12 [I-645] | < 50% | 8.00 to 9.00 | < 50% |  | 
42 | CNc1cc(Nc2cccc([C@H]3CCCCO3)n2)nc2c(C(=O)N[C@H]3CC[C@H]3O)cnn12 [I-647] | < 50% | > 9.70 | < 50% |  | 
43 | CNc1cc(Nc2cccc([C@H]3CCCCO3)n2)nc2c(C(=O)N[C@@H]3CC[C@@H]3O)cnn12 [I-648] |  | 9.00 to 9.70 |  | A (percent inhibition at 10 μM lower than 50) | A (percent inhibition at 10 μM lower than 50)
44 | CNc1cc(Nc2cccn(C3CCOCC3)c2=O)nc2c(C(=O)NCC(C)CO)cnn12 (stereo not drawn) [I-649] | < 50% | > 9.70 | < 50% |  | 
